In one assay the test system is MDA-MB-436. Put plainly: CTG experiment for cell viability (CellTiter-Glo, 96-well plate, 7 days). It counts as cell-based. As to conditions: MDA-MB-436 cells, 7 days culture with compound. In a few lines:
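MDA-MB-436 cells in DMEM were plated in 96-well format, treated with compounds, and cultured 7 days at 37°C. After removing the medium, cells were given PBS plus CellTiter-Glo reagent, incubated 10 min at room temperature, and luminescence was read. Curves were fitted as for the enzyme assay.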
Background: Cellular ATP, detected with luciferase, serves as a proxy for viable cell number.

Assay [1] deals with T1, Recombinant human His6-USP1/His6-UAF1 complex protein (Homo sapiens, UniProt O94782).
T1 construct: His6; purchased R&D E-568-050
T1 sequence (O94782 whole entry): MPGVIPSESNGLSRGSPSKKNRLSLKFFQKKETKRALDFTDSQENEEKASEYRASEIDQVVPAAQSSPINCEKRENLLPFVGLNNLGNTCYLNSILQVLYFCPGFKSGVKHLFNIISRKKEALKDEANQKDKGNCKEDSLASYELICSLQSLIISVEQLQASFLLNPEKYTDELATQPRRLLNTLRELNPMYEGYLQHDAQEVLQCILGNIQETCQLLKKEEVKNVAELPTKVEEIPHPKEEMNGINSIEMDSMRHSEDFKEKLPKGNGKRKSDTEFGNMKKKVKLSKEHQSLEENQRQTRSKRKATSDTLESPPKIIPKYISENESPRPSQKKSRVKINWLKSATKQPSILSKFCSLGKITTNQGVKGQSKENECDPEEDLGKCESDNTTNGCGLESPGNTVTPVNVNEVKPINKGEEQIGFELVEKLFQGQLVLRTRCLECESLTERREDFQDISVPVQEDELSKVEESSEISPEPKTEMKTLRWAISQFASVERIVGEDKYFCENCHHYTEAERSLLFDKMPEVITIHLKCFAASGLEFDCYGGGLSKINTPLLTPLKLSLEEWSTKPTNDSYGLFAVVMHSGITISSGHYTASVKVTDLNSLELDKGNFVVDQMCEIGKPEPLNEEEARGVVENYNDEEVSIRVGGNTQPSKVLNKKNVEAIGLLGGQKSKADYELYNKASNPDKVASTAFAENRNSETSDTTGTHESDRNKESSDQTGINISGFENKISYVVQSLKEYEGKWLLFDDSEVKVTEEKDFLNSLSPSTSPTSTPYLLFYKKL
T1 sequence (Q8TAF3 whole entry partner): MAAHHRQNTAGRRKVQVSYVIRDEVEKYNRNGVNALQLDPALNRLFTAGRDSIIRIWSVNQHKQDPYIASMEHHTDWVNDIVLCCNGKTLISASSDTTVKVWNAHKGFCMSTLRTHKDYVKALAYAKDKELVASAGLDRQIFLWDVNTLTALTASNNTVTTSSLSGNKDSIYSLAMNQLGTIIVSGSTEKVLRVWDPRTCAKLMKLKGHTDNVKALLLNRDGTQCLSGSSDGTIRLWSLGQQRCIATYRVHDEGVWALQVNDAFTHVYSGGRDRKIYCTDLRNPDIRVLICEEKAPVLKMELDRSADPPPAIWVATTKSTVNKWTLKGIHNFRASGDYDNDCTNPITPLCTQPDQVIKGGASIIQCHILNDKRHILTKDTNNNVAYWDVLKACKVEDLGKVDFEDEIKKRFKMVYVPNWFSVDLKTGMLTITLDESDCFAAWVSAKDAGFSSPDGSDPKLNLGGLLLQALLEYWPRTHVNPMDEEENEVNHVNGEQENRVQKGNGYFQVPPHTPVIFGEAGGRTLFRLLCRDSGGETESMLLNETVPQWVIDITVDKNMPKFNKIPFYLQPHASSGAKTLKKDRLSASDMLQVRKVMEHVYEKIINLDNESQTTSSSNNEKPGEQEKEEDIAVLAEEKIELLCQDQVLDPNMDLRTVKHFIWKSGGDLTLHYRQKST
Put plainly: In vitro inhibitory activity against USP1 (Ubiquitin Rhodamine 110 fluorescence detection, 384-well plate). The assay is classed as biochemical. As to conditions: Ub-Rho substrate, 1 hour pre-incubation, read after 30 minutes. The method in brief: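 Fluorescence assay measuring inhibition of recombinant human His6-USP1/His6-UAF1 complex with Ubiquitin-Rhodamine 110 substrate. Compounds held as 50 mM stocks in 100% DMSO and dispensed by acoustic transfer into modified Tris assay buffer.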

[2] abbreviates: Homo sapiens, MDA-MB-436, 168 h.

As for `[2H]C([2H])([2H])N(C[C@H]1CC[C@H](c2nc(C(F)(F)F)cn2C2CC2)CC1)c1nc(-c2c(OC)ncnc2C2CC2)ncc1OC` [Example S23, 4'-Cyclopropyl-N-(((1R,4R)-4-(1-cyclopropyl-4-(trifluoromethyl)-1H-imidazol-2-yl)cyclohexyl)methyl)-5,6'-dimethoxy-N-(methyl-D3)-[2,5'-bipyrimidin]-4-amine], the IC50 in the assay with MDA-MB-436 (setting [2]) stood at 0.1 nM; in assay [1], 4.8 nM.
For `[2H]C([2H])([2H])Oc1ncnc(C2CC2)c1-c1ncc(OC)c(N(C[C@H]2CC[C@H](c3nc(C(F)(F)F)cn3C)CC2)C([2H])([2H])[2H])n1` [Example S24, 4'-Cyclopropyl-5-methoxy-6'-(methoxy-D3)-N-(methyl-D3)-N(((1R,4R)-4-(1-methyl-4-(trifluoromethyl)-1H-imidazol-2-yl)cyclohexyl)methyl)-[2,5'-bipyrimidin]-4-amine] the same measures were 4.6 nM and 5.7 nM.
With `COc1cnc(-c2c(OC)ncnc2C2CC2)nc1N(C)C[C@H]1CC[C@H](c2nc(C(F)(F)F)cn2C(C)C)CC1` [Example S26, 4'-Cyclopropyl-N-(((1R,4R)-4-(1-isopropyl-4-(trifluoromethyl)-1H-imidazol-2-yl)cyclohexyl)methyl)-5,6'-dimethoxy-N-methyl-[2,5'-bipyrimidin]-4-amine], the values for the IC50 (in the assay on MDA-MB-436 (setting [2]); in assay [1]) were 14.3 nM and 13 nM, respectively.
As to `COc1cnc(-c2c(OC)ncnc2OC)nc1NC[C@H]1CC[C@H](c2nc(C(F)(F)F)cn2C2CC2)CC1` [Example S29, N-(((1R,4R)-4-(1-cyclopropyl-4-(trifluoromethyl)-1H-imidazol-2-yl)cyclohexyl)methyl)-4',5,6'-trimethoxy-[2,5'-bipyrimidin]-4-amine], the IC50 in the assay with MDA-MB-436 (setting [2]) turned out to be 338 nM; in assay [1] it was 15 nM.
For `COc1cnc(-c2c(OC)ncnc2OC)nc1N(C)C[C@H]1CC[C@H](c2nc(C(F)(F)F)cn2C2CC2)CC1` [Example S30, N-(((1R,4R)-4-(1-cyclopropyl-4-(trifluoromethyl)-1H-imidazol-2-yl)cyclohexyl)methyl)-4',5,6'-trimethoxy-N-methyl-[2,5'-bipyrimidin]-4-amine], the IC50 was determined as 31.9 nM with MDA-MB-436 (setting [2]) and 12 nM in assay [1].
The corresponding values for `COc1cnc(-c2c(C)ncnc2OC2CC2)nc1N(C)C[C@H]1CC[C@H](c2nc(C(F)(F)F)cn2C)CC1` [Example S32] are 235 nM and 106 nM.
With `COc1cnc(-c2c(OC)ncnc2C2CC2F)nc1N(C)C[C@H]1CC[C@H](c2nc(C(F)(F)F)cn2C)CC1` (some centres unmarked) [Example S35], the values for the IC50 (with MDA-MB-436 (setting [2]); in assay [1]) were 3.5 nM and 6.8 nM, respectively.
The corresponding values for `COc1cnc(-c2c(OC)ncnc2C(F)(F)F)nc1N(C)C[C@H]1CC[C@H](c2nc(C(F)(F)F)cn2C)CC1` [Example S36, 4',5-Dimethoxy-N-methyl-N-(((1R,4R)-4-(1-methyl-4-(trifluoromethyl)-1H-imidazol-2-yl)cyclohexyl)methyl)-6'-(trifluoromethyl)-[2,5'-bipyrimidin]-4-amine] are 1.8 nM and 7.1 nM.
In the case of `COc1cnc(-c2c(OC)ncnc2C(F)(F)F)nc1N(C)C[C@H]1CC[C@H](c2nc(C(F)(F)F)cn2C(C)C)CC1` [Example S37, N-(((1R,4R)-4-(1-isopropyl-4-(trifluoromethyl)-1H-imidazol-2-yl)cyclohexyl)methyl)-4',5-dimethoxy-N-methyl-6'-(trifluoromethyl)-[2,5'-bipyrimidin]-4-amine], the concentration for half-maximal inhibition (IC50) in the assay with MDA-MB-436 (setting [2]) worked out at 32.6 nM; in assay [1], 12 nM.
The corresponding values for `COc1cnc(-c2cccnc2C(C)C)nc1NCC12C3C4C1C1C2C3C41c1nc(C(F)(F)F)cn1C` (centres unmarked) [Example S42, 2-(2-isopropylpyridin-3-yl)-5-methoxy-N-((4-(1-methyl-4-(trifluoromethyl)-1H-imidazol-2-yl)cuban-1-yl)methyl)pyrimidin-4-amine] are 3.5 nM and 1.2 nM.
For the molecule `COc1cnc(-c2c(OC)ncnc2C2CC2)nc1N(C#N)CC12CCC(c3nc(C(F)(F)F)cn3C)(CC1)CC2` [Example S43], the concentration for half-maximal inhibition (IC50) in the assay on MDA-MB-436 (setting [2]) is 12.1 nM; in assay [1], 6.9 nM.
`COc1cnc(-c2c(OC)ncnc2C2CC2(F)F)nc1N(C)CC1CCC(c2nc(C(F)(F)F)cn2C)CC1` [Example S49, 4'-(2,2-difluorocyclopropyl)-5,6'-dimethoxy-N-methyl-N-((1R,4R)-4-(1-methyl-4-(trifluoromethyl)-1H-imidazol-2-yl)cyclohexyl)methyl)-[2,5'-bipyrimidin]-4-amine]: the IC50 with MDA-MB-436 (setting [2]) was determined as 0.7 nM; in assay [1], 3.1 nM.
Regarding `COc1cnc(-c2c(OC)ncnc2C2CC2)nc1N(C)CC12C3C4C1C1C2C3C41c1nc(C(F)(F)F)cn1C` (centres unmarked) [Example S51, 4'-cyclopropyl-5,6'-dimethoxy-N-methyl-N-((4-(1-methyl-4-(trifluoromethyl)-1H-imidazol-2-yl)cuban-1-yl)methyl)-[2,5'-bipyrimidin]-4-amine], the IC50 in the assay on MDA-MB-436 worked out at 5.8 nM; in assay [1] it was 3.8 nM.

A word on the IC50: it is the concentration needed to halve the response being measured.

For the origin of these results see patent publication EP4741386A1 (Jiangsu Yahong Meditech Co., Ltd., priority 2023, dated 2025).
